Where two headings read alike, the source gives them in different places.
Target: T1, TrkA (Homo sapiens, UniProt P04629)
T1 construct: aa 441-796; His; purchased Invitrogen PV3144
Test: Isolated TRK enzyme assay (HTRF KinEASE-TK kit), PV3144 TrkA enzyme assay
Assay type: biochemical
Experimental: Isolated TRK Enzyme assays use the HTRF KinEASE-TK kit (Cisbio Cat#62TK0PEJ) with recombinant His-tagged cytoplasmic domains of each TRK receptor sourced from Invitrogen (see table below). This activity-assay measures the phosphorylation of tyrosine residues within a substrate from the HTRF kit which has been validated by Cisbio for a variety of tyrosine kinases including the TRK receptors.
0.5 mM stock solutions of test compounds are prepared and serially diluted in 100% DMSO. A standard curve using the compound of Example 135 disclosed in WO2005/116035 of 150 uM is also prepared on each test plate. High percentage effect (HPE) is defined by 150 uM (using the compound of Example 135 as disclosed in WO2005/116035) and 0% effect (ZPE) is defined by 100% DMSO. Greiner low volume black plates containing 0.2 ul of serially diluted compound, standard and HPE/ZPE are created using the Bravo nanolitre dispenser.
1X enzyme buffer is prepared from 5X Enzymatic Buffer from the Cisbio KinEASE TK kit using MilliQ water. The buffer is then supplemented with 10 mM MgCl and 2 mM DTT (both from Sigma). In the case of TRKB, the buffer is also supplemented with 125 nM Supplement Enzymatic Buffer (SEB) from the Cisbio kit.
2X FAC of enzyme and 2X FAC ATP diluted in 1X complete enzyme buffer is incubated at room temperature for 20 minutes to preactivate the enzyme. Following this preactivation step, 5 ul/well of enzyme+ATP mix is added using a Multidrop Micro to the assay plate, spotted with 0.2 ul 100% DMSO compound. This is left for 20 mins at room temperature before adding 5 ul of 2 uM TK-substrate-Biotin (from the Cisbio kit) diluted in 1X enzyme buffer (1 uM FAC) using the Multidrop Micro. The reaction is incubated at room temperature for the optimized assay reaction time (see table). The reaction is stopped by adding 10 ul/well HTRF Detection Buffer containing 0.25 uM Streptavidin-XL665 (0.125 uM FAC) and 1:200 TK Antibody-Cryptate using a Multidrop.
After the Detection Reagent addition, plates are covered and incubated at room temperature for 60 minutes. HTRF signal is read using an Envision reader, measured as a ratio of emissions at two different wavelengths, 620 nm and 665 nm. […] Test compound data are expressed as percentage inhibition defined by HPE and ZPE values for each plate. Percentage inhibition in the presence of test compound is plotted against compound concentration on a log scale to determine an IC50 from the resultant sigmoid curve.
Below are TrkA IC50 data generated using the PV3144 TrkA enzyme assay. Where more than one reading was taken, the arithmetic mean is presented.

[1] = PV3144 TrkA enzyme assay, recombinant His-tagged cytoplasmic domain aa 441-796, 4 nM enzyme, 40 uM ATP, arithmetic mean where more than one reading, read-out: Trka enzyme (IC50)

T1 sequence (P04629 441-796): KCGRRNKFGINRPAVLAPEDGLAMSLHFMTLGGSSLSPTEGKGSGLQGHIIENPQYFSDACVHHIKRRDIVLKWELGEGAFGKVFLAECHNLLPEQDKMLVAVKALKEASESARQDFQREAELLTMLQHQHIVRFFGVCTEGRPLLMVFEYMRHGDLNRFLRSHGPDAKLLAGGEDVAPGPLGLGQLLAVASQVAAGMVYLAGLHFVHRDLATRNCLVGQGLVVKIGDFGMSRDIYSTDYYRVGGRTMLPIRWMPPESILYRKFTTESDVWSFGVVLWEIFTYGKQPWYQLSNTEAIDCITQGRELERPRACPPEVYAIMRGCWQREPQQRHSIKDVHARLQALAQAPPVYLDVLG

| SMILES | IC50 | IC50 [1] |
| --- | --- | --- |
| Cc1cc(C)n(CC(=O)Nc2cc(C(=O)c3cn(CC4CC4)c4ncncc34)ccn2)n1 [Example 176, N-(4-{[7-(Cyclopropylmethyl)-7H-pyrrolo[2,3-d]pyrimidin-5-yl]carbonyl}pyridin-2-yl)-2-(3,5-dimethyl-1H-pyrazol-1-yl)acetamide] | 107 nM | – |
| O=C(Cc1ccc(C(F)(F)F)c(F)c1)Nc1ccnc(C(=O)c2cn(C(CO)CO)c3ncncc23)c1 [Example 94, N-(2-{[7-(1,3-dihydroxypropan-2-yl)-7H-pyrrolo[2,3-d]pyrimidin-5-yl]carbonyl}pyridin-4-yl)-2-[3-fluoro-4-(trifluoromethyl)phenyl]acetamide] | – | 922 nM |
| CC(CO)n1cc(C(=O)c2ccnc(NC(=O)Cc3ccc(C#N)cc3)c2)c2cncnc21 (racemic) [Example 32, 2-(4-cyanophenyl)-N-(4-{[7-(1-hydroxypropan-2-yl)-7H-pyrrolo[2,3-d]pyrimidin-5-yl]carbonyl}pyridin-2-yl)acetamide] | – | 101 nM |
| C[C@@H](CO)n1cc(C(=O)c2cc(NC(=O)Cc3ccc(Cl)cn3)ccn2)c2cncnc21 [Example 13, 2-(5-chloropyridin-2-yl)-N-[2-({7-[(2S)-1-hydroxypropan-2-yl]-7H-pyrrolo[2,3-d]pyrimidin-5-yl}carbonyl)pyridin-4-yl]acetamide] | – | 230 nM |
| CC(C)n1cc(C(=O)c2cc(NC(=O)Cn3ccc(C4CC4)n3)ccn2)c2cncnc21 [Example 83, 2-(3-cyclopropyl-1H-pyrazol-1-yl)-N-(2-{[7-(propan-2-yl)-7H-pyrrolo[2,3-d]pyrimidin-5-yl]carbonyl}pyridin-4-yl)acetamide] | – | 10.2 nM |
| C[C@H](CO)n1cc(C(=O)c2cc(NC(=O)Cc3ccc(Cl)cn3)ccn2)c2cncnc21 [Example 25, 2-(5-chloropyridin-2-yl)-N-[2-({7-[(2R)-1-hydroxypropan-2-yl]-7H-pyrrolo[2,3-d]pyrimidin-5-yl}carbonyl)pyridin-4-yl]acetamide] | – | 363 nM |
| CC(C)n1cc(C(=O)c2ccnc(NC(=O)Cc3ccc(F)cc3)c2)c2cncnc21 [Example 153, 2-(4-fluorophenyl)-N-(4-{[7-(propan-2-yl)-7H-pyrrolo[2,3-d]pyrimidin-5-yl]carbonyl}pyridin-2-yl)acetamide] | – | 42 nM |
| CC(C)n1cc(C(=O)c2ccnc(NC(=O)Cc3ccccn3)c2)c2cncnc21 [Example 163, N-(4-{[7-(propan-2-yl)-7H-pyrrolo[2,3-d]pyrimidin-5-yl]carbonyl}pyridin-2-yl)-2-(pyridin-2-yl)acetamide] | – | 3620 nM |
| Cc1cc(C)n(CC(=O)Nc2cc(C(=O)c3cn(CC4(O)CC4)c4ncncc34)ccn2)n1 [Example 177, 2-(3,5-Dimethyl-1H-pyrazol-1-yl)-N-[4-({7-[(1-hydroxycyclopropyl)methyl]-7H-pyrrolo[2,3-d]pyrimidin-5-yl}carbonyl)pyridin-2-yl]acetamide] | – | 617 nM |
| CC(CO)n1cc(C(=O)c2ccnc(NC(=O)Cc3ccc(C#N)cc3)c2)c2cncnc21 (single isomer, unassigned) [Example 33, 2-(4-cyanophenyl)-N-(4-{[7-(1-hydroxypropan-2-yl)-7H-pyrrolo[2,3-d]pyrimidin-5-yl]carbonyl}pyridin-2-yl)acetamide] | – | 2560 nM |
| CC(C)(CO)n1cc(C(=O)c2ccc(C#N)c(NC(=O)Cc3ccc(Cl)cc3)c2)c2cnc(N)nc21 [Example 9, N-(5-{[2-amino-7-(1-hydroxy-2-methylpropan-2-yl)-7H-pyrrolo[2,3-d]pyrimidin-5-yl]carbonyl}-2-cyanophenyl)-2-(4-chlorophenyl)acetamide] | – | 11.1 nM |
| CC(C)n1cc(C(=O)c2cc(NC(=O)Cc3ccc(Cl)cc3)ccn2)c2cncnc21 [Example 47, 2-(4-Chloro-phenyl)-N-[2-(7-isopropyl-7H-pyrrolo[2,3-d]pyrimidine-5-carbonyl)-pyridin-4-yl]-acetamide] | – | 5.71 nM |
| CS(=O)(=O)c1cccc(CC(=O)Nc2cc(C(=O)c3cn(CCO)c4ncncc34)ccn2)c1 [Example 131, N-(4-{[7-(2-hydroxyethyl)-7H-pyrrolo[2,3-d]pyrimidin-5-yl]carbonyl}pyridin-2-yl)-2-[3-(methylsulfonyl)phenyl]acetamide] | – | 1110 nM |
| Cc1ccn(CC(=O)Nc2cc(C(=O)c3cn(CCO)c4ncncc34)ccn2)n1 [Example 128, N-(4-{[7-(2-hydroxyethyl)-7H-pyrrolo[2,3-d]pyrimidin-5-yl]carbonyl}pyridin-2-yl)-2-(3-methyl-1H-pyrazol-1-yl)acetamide] | – | 1230 nM |
| Cc1cc(C(F)(F)F)nn1CC(=O)Nc1ccnc(C(=O)c2cn(C(C)(C)CO)c3ncncc23)c1 [Example 60, N-(2-{[7-(1-hydroxy-2-methylpropan-2-yl)-7H-pyrrolo[2,3-d]pyrimidin-5-yl]carbonyl}pyridin-4-yl)-2-[5-methyl-3-(trifluoromethyl)-1H-pyrazol-1-yl]acetamide] | – | 8.3 nM |
| CC(C)(C)n1cc(C(=O)c2cc(NC(=O)Cn3ccc(C4CC4)n3)ccn2)c2cncnc21 [Example 40, N-{2-[(7-tert-butyl-7H-pyrrolo[2,3-d]pyrimidin-5-yl)carbonyl]pyridin-4-yl}-2-(3-cyclopropyl-1H-pyrazol-1-yl)acetamide] | – | 8.38 nM |
| Cc1cc(C(F)(F)F)nn1CC(=O)Nc1ccnc(C(=O)c2cn(C(C)C)c3ncncc23)c1 [Example 69, 2-[5-methyl-3-(trifluoromethyl)-1H-pyrazol-1-yl]-N-(2-{[7-(propan-2-yl)-7H-pyrrolo[2,3-d]pyrimidin-5-yl]carbonyl}pyridin-4-yl)acetamide] | – | 5.54 nM |
| CC(CO)(CO)n1cc(C(=O)c2cc(NC(=O)Cc3ccc(C(F)(F)F)cc3)ccn2)c2cncnc21 [Example 103, N-(2-{[7-(1,3-dihydroxy-2-methylpropan-2-yl)-7H-pyrrolo[2,3-d]pyrimidin-5-yl]carbonyl}pyridin-4-yl)-2-[4-(trifluoromethyl)phenyl]acetamide] | – | 13.6 nM |
| C[C@@H](CO)n1cc(C(=O)c2cc(NC(=O)Cc3ccc(Cl)cc3)ccn2)c2cncnc21 [Example 16, 2-(4-chlorophenyl)-N-[2-({7-[(2S)-1-hydroxypropan-2-yl]-7H-pyrrolo[2,3-d]pyrimidin-5-yl}carbonyl)pyridin-4-yl]acetamide] | – | 147 nM |
| C[C@@H](CO)n1cc(C(=O)c2cc(NC(=O)Cc3ccc(F)cn3)ccn2)c2cncnc21 [Example 18, 2-(5-fluoropyridin-2-yl)-N-[2-({7-[(2S)-1-hydroxypropan-2-yl]-7H-pyrrolo[2,3-d]pyrimidin-5-yl}carbonyl)pyridin-4-yl]acetamide] | – | 202 nM |
| CC(C)(CO)n1cc(C(=O)c2ccnc(NC(=O)Cc3ccc(C#N)cc3)c2)c2cncnc21 [Example 111, 2-(4-cyanophenyl)-N-(4-{[7-(1-hydroxy-2-methylpropan-2-yl)-7H-pyrrolo[2,3-d]pyrimidin-5-yl]carbonyl}pyridin-2-yl)acetamide] | – | 31.8 nM |
| O=C(Cc1ccc(Cl)cc1)Nc1ccnc(C(=O)c2cn(C(CO)CO)c3ncncc23)c1 [Example 92, 2-(4-chlorophenyl)-N-(2-{[7-(1,3-dihydroxypropan-2-yl)-7H-pyrrolo[2,3-d]pyrimidin-5-yl]carbonyl}pyridin-4-yl)acetamide] | – | 747 nM |
| N#Cc1ccc(CC(=O)Nc2cc(C(=O)c3cn(CCO)c4ncncc34)ccn2)cc1 [Example 143, 2-(4-cyanophenyl)-N-(4-{[7-(2-hydroxyethyl)-7H-pyrrolo[2,3-d]pyrimidin-5-yl]carbonyl}pyridin-2-yl)acetamide] | – | 268 nM |

Reference: patent publication US20150218172A1, “Pyrrolo[2,3-D]Pyrimidine Tropomyosin-Related Kinase Inhibitors” (PFIZER LIMITED, priority 2012, published 2015)
